{
  "source": "patent US12473250B2",
  "about": "“Molecular design of new antibiotics and antibiotic adjuvants against MCR strains” (priority 2019, dated 2025)",
  "key": {"[1]": {"system": "EC strains (CRE strains, colistin sensitive)", "assay": "MIC of polymyxin B or colistin alone (Table 4)", "format": "cell-based, E. coli", "design": "unit: μg/mL", "experimental": "(§1) MIC experiments of the antimicrobial agents were determined by a modified broth microdilution method in accordance with the Clinical and Laboratory Standards Institute (CLSI) guidelines using 96 well culture plates. In brief, serial dilutions of all plates were prepared at different concentrations (μg). The inoculum suspension was prepared by adding isolated colonies from a 18-20 hours on TSA plate into phosphate buffer (0.31 mM, pH 7.2) or in water for injection (BBraun) and adjusting the suspension to a turbidity equivalent to 0.5 McFarland Standard. Each well contained a final bacterial concentration of approximately 5×10^5 colony forming units (CFU)/mL. The plate was covered and incubated at 35° C. for 24 hours. […] For the microdilution plates, turbidity in wells can be measured at OD600 using TECAN infinite M200Pro. MIC was determined as […] concentration that gives a 99 percent inhibition."}, "[2]": {"system": "PAE strains (CRE strains, colistin sensitive)", "assay": "MIC of polymyxin B or colistin alone (Table 4)", "format": "cell-based, P. aeruginosa", "design": "unit: μg/mL", "experimental": "as §1"}},
  "data": [
    {"substance": "Colistin", "values": [
      {"measurement": "MIC (antibiotic alone)", "setting": "[1]; strain EC 17232", "result": 0.195},
      {"measurement": "MIC (antibiotic alone)", "setting": "[1]; strain EC 17528", "result": 0.78},
      {"measurement": "MIC (antibiotic alone)", "setting": "[1]; strain EC 19963", "result": 1.56},
      {"measurement": "MIC (antibiotic alone)", "setting": "[2]; strain PAE 4877", "result": 1.56},
      {"measurement": "MIC (antibiotic alone)", "setting": "[2]; strain PAE 5790", "result": 1.56},
      {"measurement": "MIC (antibiotic alone)", "setting": "[2]; strain PAE 14476", "result": 1.56}
    ]}
  ]
}
